Experimental data reported in ChEMBL document CHEMBL3046211, “Synthesis, antimicrobial, analgesic activity, and molecular docking studies of novel 1-(5,7-dichloro-1,3-benzoxazol-2-yl)-3-phenyl-1H-pyrazole-4-carbaldehyde derivatives” (2013).
Values after ≈ are worked out from the molar mass of the structure shown.

Tests used:
Staphylococcus aureus [1] = assay: Antibacterial activity against Staphylococcus aureus pateint isolate; format: functional
Candida albicans [2] = assay: Antifungal activity against Candida albicans at 40 ug/ml after 72 hrs by agar well diffusion method; format: functional; settings: read-out: IZ
Aspergillus niger [3] = assay: Antifungal activity against Aspergillus niger at 40 ug/ml after 72 hrs by agar well diffusion method; format: functional; settings: read-out: IZ
Salmonella typhi [4] = assay: Antibacterial activity against Salmonella typhi pateint isolate at 40 ug/ml after 24 hrs by agar well diffusion method; format: functional, Salmonella enterica subsp. enterica serovar Typhi; settings: Salmonella enterica, read-out: IZ
Bacillus subtilis [5] = assay: Antibacterial activity against Bacillus subtilis pateint isolate at 40 ug/ml after 24 hrs by agar well diffusion method; format: functional; settings: read-out: IZ
Escherichia coli [6] = assay: Antibacterial activity against Escherichia coli pateint isolate at 40 ug/ml after 24 hrs by agar well diffusion method; format: functional
Mus musculus = assay: Analgesic activity in Swiss albino mouse assessed as protection against acetic acid-induced writhing at 100 mg/kg, po administered 1 hr prior to acetic acid-challenge measured after 5 mins for 20 mins relative to control; format: functional
Candida albicans [7] = assay: Antifungal activity against Candida albicans; format: functional
Escherichia coli [8] = assay: Antibacterial activity against Escherichia coli pateint isolate; format: functional
Aspergillus niger [9] = assay: Antifungal activity against Aspergillus niger; format: functional
Salmonella typhi [10] = assay: Antibacterial activity against Salmonella typhi pateint isolate; format: functional, Salmonella enterica subsp. enterica serovar Typhi; settings: Salmonella enterica
Bacillus subtilis [11] = assay: Antibacterial activity against Bacillus subtilis pateint isolate; format: functional
Staphylococcus aureus [12] = assay: Antibacterial activity against Staphylococcus aureus pateint isolate at 40 ug/ml after 24 hrs by agar well diffusion method; format: functional; settings: read-out: IZ
Candida albicans [13] = assay: Antifungal activity against Candida albicans at 40 ug/100 ul after 72 hrs by agar well diffusion method; format: functional
Aspergillus niger [14] = assay: Antifungal activity against Aspergillus niger at 40 ug/100 ul after 72 hrs by agar well diffusion method; format: functional
Salmonella typhi [15] = assay: Antibacterial activity against Salmonella typhi pateint isolate at 40 ug/100 ul after 24 hrs by agar well diffusion method; format: functional, Salmonella enterica subsp. enterica serovar Typhi

In the case of `O=Cc1cn(-c2nc3cc(Cl)cc(Cl)c3o2)nc1-c1ccc(Br)cc1`, the MIC (Staphylococcus aureus [1]) is reported as 20 µg/mL (≈ 45.8 µM), the zone of inhibition at 40 µg/mL (Candida albicans [2]) is reported as 23 mm and the zone of inhibition at 40 µg/mL (Aspergillus niger [3]) is reported as 22 mm. The zone of inhibition at 40 µg/mL (Salmonella typhi [4]) was 21 mm, the zone of inhibition at 40 µg/mL (Bacillus subtilis [5]) was 22 mm and the “inhibition zone (IZ)” value (Escherichia coli [6]) was 22 mm. For the same molecule, the Activity (Mus musculus) was 54.63%, the MIC (Candida albicans [7]) was 30 µg/mL (≈ 68.6 µM) and the MIC (Escherichia coli [8]) was 20 µg/mL (≈ 45.8 µM). The MIC (Aspergillus niger [9]) was 20 µg/mL (≈ 45.8 µM), the MIC (Salmonella typhi [10]) was 30 µg/mL (≈ 68.6 µM) and the MIC (Bacillus subtilis [11]) was 20 µg/mL (≈ 45.8 µM). For the same molecule, the zone of inhibition at 40 µg/mL (Staphylococcus aureus [12]) was 23 mm.

`CC(=O)Oc1ccccc1C(=O)O` [ASPIRIN] was tested, and the Activity (Mus musculus) was 58.74%.

`O=Cc1cn(-c2nc3cc(Cl)cc(Cl)c3o2)nc1-c1ccc(Cl)c(Cl)c1` was tested, and the MIC (Staphylococcus aureus [1]) was 30 µg/mL (≈ 70.2 µM), the zone of inhibition at 40 µg/mL (Candida albicans [2]) was 22 mm and the zone of inhibition at 40 µg/mL (Aspergillus niger [3]) was 22 mm. The zone of inhibition at 40 µg/mL (Salmonella typhi [4]) was 20 mm, the zone of inhibition at 40 µg/mL (Bacillus subtilis [5]) was 22 mm and the “inhibition zone (IZ)” value (Escherichia coli [6]) was 22 mm. For the same molecule, the Activity (Mus musculus) was 50%, the MIC (Candida albicans [7]) was 40 µg/mL (≈ 93.7 µM) and the MIC (Escherichia coli [8]) was 30 µg/mL (≈ 70.2 µM). For the same molecule, the MIC (Aspergillus niger [9]) was 40 µg/mL (≈ 93.7 µM), the MIC (Salmonella typhi [10]) was 30 µg/mL (≈ 70.2 µM) and the MIC (Bacillus subtilis [11]) was 30 µg/mL (≈ 70.2 µM). The zone of inhibition at 40 µg/mL (Staphylococcus aureus [12]) was 22 mm.

`Cc1ccc(-c2nn(-c3nc4cc(Cl)cc(Cl)c4o3)cc2C=O)cc1` gave an MIC (Staphylococcus aureus [1]) of 30 µg/mL (≈ 80.6 µM), a zone of inhibition at 40 µg/mL (Candida albicans [2]) of 19 mm and a zone of inhibition at 40 µg/mL (Aspergillus niger [3]) of 19 mm. The zone of inhibition at 40 µg/mL (Salmonella typhi [4]) was 20 mm, the zone of inhibition at 40 µg/mL (Bacillus subtilis [5]) was 20 mm and the “inhibition zone (IZ)” value (Escherichia coli [6]) was 21 mm. The Activity (Mus musculus) was 51.4%, the MIC (Candida albicans [7]) was 30 µg/mL (≈ 80.6 µM) and the MIC (Escherichia coli [8]) was 40 µg/mL (≈ 107 µM). The MIC (Aspergillus niger [9]) was 30 µg/mL (≈ 80.6 µM), the MIC (Salmonella typhi [10]) was 30 µg/mL (≈ 80.6 µM) and the MIC (Bacillus subtilis [11]) was 30 µg/mL (≈ 80.6 µM). It also gave a zone of inhibition at 40 µg/mL (Staphylococcus aureus [12]) of 21 mm.

For `OC(Cn1cncn1)(Cn1cncn1)c1ccc(F)cc1F` [FLUCONAZOLE], the “inhibition zone (IZ)” value (Candida albicans [13]) was 23 mm and the “inhibition zone (IZ)” value (Aspergillus niger [14]) was 22 mm.

`O=Cc1cn(-c2nc3cc(Cl)cc(Cl)c3o2)nc1-c1ccc(O)cc1` showed an MIC (Staphylococcus aureus [1]) of 20 µg/mL (≈ 53.4 µM), a zone of inhibition at 40 µg/mL (Candida albicans [2]) of 22 mm and a zone of inhibition at 40 µg/mL (Aspergillus niger [3]) of 22 mm. The zone of inhibition at 40 µg/mL (Salmonella typhi [4]) was 21 mm, the zone of inhibition at 40 µg/mL (Bacillus subtilis [5]) was 23 mm and the “inhibition zone (IZ)” value (Escherichia coli [6]) was 22 mm. The Activity (Mus musculus) was 55.78%, the MIC (Candida albicans [7]) was 20 µg/mL (≈ 53.4 µM) and the MIC (Escherichia coli [8]) was 30 µg/mL (≈ 80.2 µM). For the same molecule, the MIC (Aspergillus niger [9]) was 30 µg/mL (≈ 80.2 µM), the MIC (Salmonella typhi [10]) was 30 µg/mL (≈ 80.2 µM) and the MIC (Bacillus subtilis [11]) was 20 µg/mL (≈ 53.4 µM). The zone of inhibition at 40 µg/mL (Staphylococcus aureus [12]) was 23 mm.

In the case of `COc1ccc(-c2nn(-c3nc4cc(Cl)cc(Cl)c4o3)cc2C=O)cc1`, the MIC (Staphylococcus aureus [1]) is reported as 30 µg/mL (≈ 77.3 µM), the zone of inhibition at 40 µg/mL (Candida albicans [2]) is reported as 20 mm and the zone of inhibition at 40 µg/mL (Aspergillus niger [3]) is reported as 20 mm. The zone of inhibition at 40 µg/mL (Salmonella typhi [4]) was 19 mm, the zone of inhibition at 40 µg/mL (Bacillus subtilis [5]) was 20 mm and the “inhibition zone (IZ)” value (Escherichia coli [6]) was 22 mm. It also gave an Activity (Mus musculus) of 50.27%, an MIC (Candida albicans [7]) of 40 µg/mL (≈ 103 µM) and an MIC (Escherichia coli [8]) of 40 µg/mL (≈ 103 µM). For the same molecule, the MIC (Aspergillus niger [9]) was 30 µg/mL (≈ 77.3 µM), the MIC (Salmonella typhi [10]) was 40 µg/mL (≈ 103 µM) and the MIC (Bacillus subtilis [11]) was 40 µg/mL (≈ 103 µM). It also gave a zone of inhibition at 40 µg/mL (Staphylococcus aureus [12]) of 19 mm.

`O=C(O)c1cn(C2CC2)c2cc(N3CCNCC3)c(F)cc2c1=O` [CIPROFLOXACIN] was tested, and the “inhibition zone (IZ)” value (Salmonella typhi [15]) was 21 mm.
